Laboratory results taken from patent US12410124B2 (priority 2019, dated 2025).
Where two headings read alike, the source gives them in different places.

Key:
[1] = target: acetylcholinesterase (AchE) (Homo sapiens, UniProt P22303); test: biochemical
Protocol: The modified Ellman method was used to determine the inhibitory activity on acetylcholinesterase. The principle lies in that acetylthiocholine iodide is decomposed under the action of acetylcholinesterase (AchE) to generate thiocholine. The thiocholine is quickly reacted with DTNB as the colour-developing agent to generate a yellow substance with light absorption at 405 nm. To a 96-well microplate, 50 μl of enzyme reaction buffer, 125 μl of DTNB (3 mM), 25 μl of test sample or positive control drug, and 25 μl of AchE (0.2 U/ml) were successively added. After incubation at room temperature for 5 min, 25 μl of ATCI (15 mM) was added. After incubation at room temperature for 8 min, the absorbance value was determined at 405 nm with a microplate reader. A blank control group without enzyme (25 μl PBS instead of the sample to be tested) was also established.

primary glial cells = test: Inhibition of the NO release of primary glial cells induced by LPS; format: cell-based, rat; details: for inhibition at 5 µM / inhibition at 10 µM / inhibition at 20 µM / inhibition at 2 µM: Rattus norvegicus, Glial cell, read-out: NO inhibition (%)
Excerpt: Lipopolysaccharide (LPS) is a main component of the cell wall of Gram-negative bacteria. It is a potent inflammatory factor that can directly activate gliocytes, and the activated gliocytes secrete a large amount of inflammation mediators such as tumor necrosis factor, interleukin, and nitric oxide, thus causing inflammatory reactions and oxidative stress reactions and eventually leading to neuronal denaturation and death. In recent years, the targeted injection of LPS into rat substantia nigra or striatum to induce neuroinflammation can successfully establish PD models, which can simulate most of the clinical manifestations and pathological features of PD, and are used for the study on the neuroinflammation mechanism associated with PD. LPS-induced primary glial cell PD inflammation model is suitable for the preliminary anti-neuroinflammation screening for neuroprotective agents. LPS is used to directly activate primary glial cells to simulate the pathogenesis mechanism of neuroinflammation, and the inhibitory activity of the target compounds on the inflammatory response of primary glial cells can be investigated.
The materials were taken from the brain tissue of fetal rat, for primary glial cell culture. At 7 to 10 days of the culture, LPS was added for the activation of nitric oxide (NO) release in glial cells. When a target compound was added, the reduction value for NO content in the cell culture medium was measured, to evaluate the anti-neuroinflammation activity of the compound. The experiment included blank control group, LPS model group, positive control group (caffeic acid phenethyl ester, CAPE), prototype control group (styryl sulfone compounds 3B, 3C, 3D, and 3G, the structures of which compounds are shown as above), and target compound group.

substantia nigra p-α-s = test: Substantia nigra p-α-s protein expression in MPTP Parkinson's disease model mouse (immunofluorescence); format: in vivo; details: percentage of mean intensity of blank control group, gavage 21 days after MPTP modeling
Protocol: Neurotoxins can be used to establish PD animal models. Currently, 1-methyl-4-phenyl-1,2,3,6-tetrahydropyridine (MPTP) is the sole synthetic toxin which is recognized to induce PD symptoms in human and non-human primates and in mice. Using MPTP subacute modeling method, C57BL/6J male mice were intraperitoneally injected with MPTP 30 mg/kg, once a day for 5 consecutive days. The experiment animals were divided into blank control group, MPTP model group, and compound treatment group. For the […] compound treatment group, the compound was administrated by gavage for 21 consecutive days after the completion of modeling; for the MPTP model group, the normal saline was administrated by gavage for 21 consecutive days after the completion of modeling; and for the blank control group, the normal saline was first intraperitoneally injected for 5 days, and then administrated by gavage for 21 days.
Alpha-synuclein is an “unfolded protein” in its natural state. It exists in a monomeric form, and participates in the physiological functions such as the release of neurotransmitters, the establishment of synaptic junctions, and the regulation of synaptic plasticity. Under pathological conditions, more than 90% of alpha-synuclein is phosphorylated at serine of position 129 and converted into phosphorylated alpha-synuclein (p-α-s), thereby forming Lewy bodies. The formation of Lewy bodies is one of the main pathological manifestations and pathological mechanisms for Parkinson's disease, and plays an important role in the formation and development of PD. The detection of the p-α-s expression in the midbrain and substantia nigra of PD model mice can evaluate the neuroprotective activity of the compound.
Half of experiment mice in each group were taken to separate the midbrain after perfusion and fixation. The tissue was trimmed, and the substantia nigra-striatum area was taken to prepare paraffin sections. The p-α-s immunofluorescence staining was performed in the brain sections of mice in each group. […] The experiment included blank control group, MPTP model group, positive control group (caffeic acid phenethyl ester, CAPE), prototype control group (styryl sulfone compounds 3B, 3C, 3D, and 3G, whose structures are shown as above), and target compound group.

[2] = system: fetal rat midbrain neurons; test: Survival rate of primary midbrain neurons induced by MPP+ (CCK-8); format: cell-based; details: for viability at 5 µM / viability at 10 µM / viability at 20 µM: Rattus norvegicus, Neuron, read-out: Survival rate (%); for survival rate compared with the styryl sulfone prototype compounds: no concentration stated
Excerpt: The main pathological feature of Parkinson's disease (PD) lies in the degeneration and loss of dopaminergic neuron in the substantia nigra-striatum of the midbrain. 1-Methyl-4-phenylpyridinium (MPP+) has a high affinity to dopamine carriers and a selective toxicity on dopaminergic neurons. Thus, MPP+ is one of the most ideal classic neurotoxins for establishing PD cell models. The primary cell culture of fetal rat midbrain is often used to establish PD cell models in recent years. Although it is more cumbersome and has higher technical requirements than cell line culture, it is closer to the pathological characteristics of PD. Thus, a PD cell model is established using neurons from the primary cell culture of fetal rat midbrain under MPP+ induction, to evaluate the protective effect of target compounds on the model neurons.
The midbrain was separated from a fetal rat of a 15-day-pregnant SD rat and cut into pieces, then subjected to trypsin digestion, pipetting, screen filtration, and resuspension steps, and inoculated in a 24-well cell culture plate pre-coated with poly-D-lysine. 12 hours after culture, cytarabine was added to inhibit the growth of glial cells. On the 5th day of neuron growth, the toxin MPP+ can be added to make a PD cell model. When detecting the activity of a target compound, the target compound was pre-incubated with midbrain neurons for 3 h, then MPP+ was added, and after 48 h co-incubation the neuronal viability was detected by CCK-8 method and the neuronal survival rate was calculated to evaluate the inhibitory activity of the target compound on the midbrain neuronal PD damage. The experiment included blank control group, MPP+ model group, positive control group (caffeic acid phenethyl ester, CAPE), prototype control group (styryl sulfone compounds 3B, 3C, 3D, and 3G), and target compound group (prepared according to Examples 1-22 in the invention).

[3] = acetylcholinesterase, modified Ellman method, read-out: IC50
[4] = 5 μM, 3 h pre-incubation, 48 h with MPP+
[5] = 10 μM, 3 h pre-incubation, 48 h with MPP+
[6] = 20 μM, 3 h pre-incubation, 48 h with MPP+

acetylcholinesterase (AchE), sequence (P22303 32-614, species assumed): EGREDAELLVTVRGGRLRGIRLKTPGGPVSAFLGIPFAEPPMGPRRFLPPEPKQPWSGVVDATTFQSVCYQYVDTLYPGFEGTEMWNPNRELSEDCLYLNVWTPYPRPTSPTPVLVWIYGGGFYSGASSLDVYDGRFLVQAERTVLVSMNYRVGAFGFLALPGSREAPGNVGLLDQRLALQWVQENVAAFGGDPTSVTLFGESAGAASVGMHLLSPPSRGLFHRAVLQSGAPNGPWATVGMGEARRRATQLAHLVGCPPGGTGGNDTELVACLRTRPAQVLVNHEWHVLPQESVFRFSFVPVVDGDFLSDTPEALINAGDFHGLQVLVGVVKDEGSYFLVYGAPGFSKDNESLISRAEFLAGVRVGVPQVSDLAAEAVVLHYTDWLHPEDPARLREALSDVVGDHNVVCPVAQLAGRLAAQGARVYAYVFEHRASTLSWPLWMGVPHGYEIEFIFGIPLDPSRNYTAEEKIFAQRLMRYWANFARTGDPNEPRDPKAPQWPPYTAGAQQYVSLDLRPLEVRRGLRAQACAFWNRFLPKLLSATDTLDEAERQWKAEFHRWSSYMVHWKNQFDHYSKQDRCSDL

Row | Compound | IC50 [1, 3] [µM] | Expression (Immunofluorescence intensity %) (substantia nigra p-α-s) [%] | inhibition at 5 µM (primary glial cells; 5 μM) [%] | inhibition at 10 µM (primary glial cells; 10 μM) [%] | inhibition at 20 µM (primary glial cells; 20 μM) [%] | viability at 5 µM [2, 4] [%] | viability at 10 µM [2, 5] [%] | viability at 20 µM [2, 6] [%] | NO inhibitory rate compared with the styryl sulfone prototype compounds (primary glial cells) | survival rate compared with the styryl sulfone prototype compounds [2] | further results
1 | (E)-2-[(methylamino)methoxy]-4-{2-[1-(4′-nitro-[1,1′-biphenyl]-4-yl)ethylsulfonyl]ethenyl}phenylcarbamate [Compound M1-3] | 17.6 ± 2.19 | 79.17 ± 5.10 | – | – | – | – | – | – | – | – | NO inhibition (%) (primary glial cells; 2 μM): 23.93 ± 4.67%; NO inhibition (%) (primary glial cells; 5 μM): 47.42 ± 4.43%; NO inhibition (%) (primary glial cells; 10 μM): 73.41 ± 4.83%; Survival rate (%) [2, 4]: 76.51 ± 4.82%; Survival rate (%) [2, 5]: 85.29 ± 2.97%; Survival rate (%) [2, 6]: 93.26 ± 2.26%
2 | O=S(=O)(/C=C/c1ccc(O)c(O)c1)Cc1ccc(C(F)(F)F)cc1 [Compound 3B, (E)-4-{2-[(4-trifluoromethylphenyl)mesyl]ethenyl}benzene-1,2-diol, reference compound] | > 100 | 236.55 ± 13.78 | 17.2 ± 4.56 | 38.6 ± 2.13 | 92 ± 3.01 | 65.9 ± 1.47 | 76.4 ± 6.54 | 84.9 ± 2.65 | – | – | –
3 | COc1ccc(CC(=O)Oc2ccc(C(N)CS(=O)(=O)/C=C/c3ccc(OC(C)(C)C)c(OC(=O)N(C)c4ccccc4)c3)cc2)cc1 (centres unmarked) [Compound P1-3, (E)-4-{1-amino-2-[4-t-butoxy-3-(N-methyl-N-phenylcarbamoyloxy)styrylsulfonyl]ethyl}phenyl-2-(4-methoxyphenyl)acetate] | – | 48.33 ± 5.37 | – | – | – | – | – | – | – | – | IC50 [1]: 14.4 ± 2.04 µM; inhibition at 5 µM (primary glial cells): 25.8 ± 4.25%; inhibition at 10 µM (primary glial cells): 42 ± 5.34%; inhibition at 20 µM (primary glial cells): 58.2 ± 3.66%; viability at 5 µM ([2]; 48 h): 71 ± 3.56%; viability at 10 µM ([2]; 48 h): 85.2 ± 2.94%; viability at 20 µM ([2]; 48 h): 93.7 ± 3.08%
4 | CCN(CC)C(=O)Oc1ccc(/C=C/S(=O)(=O)Cc2ccc(C(F)(F)F)cc2)cc1OC(=O)N(CC)CC [Compound B1-1, (E)-4-{2-[(4-trifluoromethylphenyl)mesyl]ethenyl}-1,2-phenylenebis(diethylcarbamate)] | 13.3 ± 2.85 | 82.54 ± 9.34 | 21.6 ± 2.18 | 42.8 ± 3.56 | 97.7 ± 2.04 | 78.5 ± 4.12 | 89.7 ± 2.89 | 93.8 ± 1.59 | equivalent or higher inhibitory rate | significantly increased | –
5 | CCN(CC)C(=O)Oc1ccc(/C=C/S(=O)(=O)Cc2ccc(C(C)(C)C)cc2)cc1OC(=O)N(CC)CC [Compound G1-1, (E)-4-{2-[(4-t-butylphenyl)mesyl]ethenyl}-1,2-phenylenebis(diethylcarbamate)] | 10.8 ± 2.13 | 77.36 ± 9.15 | 64.2 ± 3.25 | 85.8 ± 5.01 | – | 78.5 ± 3.59 | 85.9 ± 2.67 | 91.4 ± 1.59 | equivalent or higher inhibitory rate | significantly increased | inhibition at 2 µM (primary glial cells; 2 μM): 27.2 ± 3.98%
6 | CCN(CC)C(=O)Oc1ccc(/C=C/S(=O)(=O)CCCc2ccccc2)cc1OC(=O)N(CC)CC [Compound C1-1, (E)-4-[2-(3-phenylpropylsulfonyl)ethenyl]-1,2-phenylenebis(diethylcarbamate)] | 14.7 ± 3.51 | 123.59 ± 8.25 | 17.6 ± 3.24 | 32.8 ± 5.25 | 59.5 ± 4.33 | 69.5 ± 3.89 | 82.2 ± 3.07 | 90.3 ± 2.17 | equivalent or higher inhibitory rate | significantly increased | –
7 | CC(Br)C(Br)COc1cc(/C=C/S(=O)(=O)CCc2ccc(OCC(F)(F)F)cc2)ccc1OC(=O)Nc1ccsc1 (centres unmarked) [Compound K1-3, (E)-2-(2,3-dibromobutoxy)-4-{2-[4-(2,2,2-trifluoroethoxy)phenylethylsulfonyl]ethenyl}phenyl-N-(thien-3-yl)carbamate] | 22.3 ± 3.17 | 90.04 ± 7.43 | 33.3 ± 6.71 | 54.2 ± 4.06 | 81.4 ± 4.29 | 65.4 ± 4.31 | 72.1 ± 2.77 | 83.2 ± 1.76 | – | – | –
8 | CCN(CC)C(=O)Oc1ccc(/C=C/S(=O)(=O)Cc2ccc(Cl)cc2)cc1OC(=O)N(CC)CC [Compound D1-1, (E)-4-{2-[(4-chlorophenyl)mesyl]ethenyl}-1,2-phenylenebis(diethylcarbamate)] | 4.16 ± 1.07 | 42.52 ± 5.43 | 61.4 ± 2.77 | 84.5 ± 7.56 | – | 80.3 ± 2.67 | 94.6 ± 3.76 | 98 ± 1.32 | equivalent or higher inhibitory rate | significantly increased | inhibition at 2 µM (primary glial cells; 2 μM): 24.8 ± 4.08%
9 | Cc1ccc(S(=O)(=O)Oc2ccc(CS(=O)(=O)/C=C/c3ccc(OS(=O)(=O)c4ccc(C)cc4)c(OC(=O)N(C)S(=O)(=O)c4ccc(C)cc4)c3)cc2)cc1 [Compound S6-6, (E)-2-(N-methyl-N-p-tosylcarbamoyloxy)-4-{2-[(4-p-tosyloxyphenyl)mesyl]ethenyl}phenyl p-toluenesulfonate] | – | 72.57 ± 6.63 | – | – | – | – | – | – | – | – | IC50 [1]: 15.6 ± 3.07 µM; inhibition at 5 µM (primary glial cells): 30.2 ± 2.97%; inhibition at 10 µM (primary glial cells): 59.2 ± 3.49%; inhibition at 20 µM (primary glial cells): 85.1 ± 4.41%; viability at 5 µM ([2]; 48 h): 72 ± 2.47%; viability at 10 µM ([2]; 48 h): 83.2 ± 4.07%; viability at 20 µM ([2]; 48 h): 91.7 ± 3.18%
